Publication PMC10817531, “Chlorinated Enyne Fatty Acid Amides from a Marine Cyanobacterium: Discovery of Taveuniamides L-M and Pharmacological Characterization of Taveuniamide F as a GPCR Antagonist with CNR1 Selectivity” (Marine Drugs, 2023)

How the values were obtained:
Experiment in all cases: PathHunter β-arrestin GpcrMAX assay
Type in all cases: cell-based
AGTR1 = AGTR1 (Homo sapiens, UniProt P30556)
Description: (§1) GpcrMAX panel biosensor assays were used to characterize taveuniamide F (4, 20 µM) (agonist and antagonist mode). The experiments were carried out by DiscoveRx Corporation (Fremont, CA, USA) as described before, using PathHunter β-arrestin enzyme fragment complementation (EFC) technology.

AGTRL1 = AGTRL1 (Homo sapiens, UniProt P35414)
Description: as §1

AVPR1A = AVPR1A (Homo sapiens, UniProt P37288)
Description: as §1

BDKRB2 = BDKRB2 (Homo sapiens, UniProt P30411)
Description: as §1

C5L2 = C5L2 (Homo sapiens, UniProt Q9P296)
Description: as §1

CCKBR = biological target: T1, CCKBR (Homo sapiens, UniProt P32239)
T1 construct: purchased DiscoveRx (Eurofins) gpcrMAX PathHunter β-arrestin panel
Description: as §1

CCR4 = biological target: T2, CCR4 (Homo sapiens, UniProt P51679)
T2 construct: purchased DiscoveRx (Eurofins) gpcrMAX PathHunter β-arrestin panel
Description: as §1

CCR5 = biological target: T3, CCR5 (Homo sapiens, UniProt P51681)
T3 construct: purchased DiscoveRx (Eurofins) gpcrMAX PathHunter β-arrestin panel
Description: as §1

CCR6 = biological target: T4, CCR6 (Homo sapiens, UniProt P51684)
T4 construct: purchased DiscoveRx (Eurofins) gpcrMAX PathHunter β-arrestin panel
Description: as §1

CCR8 = biological target: T5, CCR8 (Homo sapiens, UniProt P51685)
T5 construct: purchased DiscoveRx (Eurofins) gpcrMAX PathHunter β-arrestin panel
Description: as §1

CHRM2 = biological target: T6, CHRM2 (Homo sapiens, UniProt P08172)
T6 construct: purchased DiscoveRx (Eurofins) gpcrMAX PathHunter β-arrestin panel
Description: as §1

CRHR1 = biological target: T7, CRHR1 (Homo sapiens, UniProt P34998)
T7 construct: purchased DiscoveRx (Eurofins) gpcrMAX PathHunter β-arrestin panel
Description: as §1

CRHR2 = biological target: T8, CRHR2 (Homo sapiens, UniProt Q13324)
T8 construct: purchased DiscoveRx (Eurofins) gpcrMAX PathHunter β-arrestin panel
Description: as §1

CRTH2 = biological target: T9, CRTH2 (Homo sapiens, UniProt Q9Y5Y4)
T9 construct: purchased DiscoveRx (Eurofins) gpcrMAX PathHunter β-arrestin panel
Description: as §1

CX3CR1 = biological target: T10, CX3CR1 (Homo sapiens, UniProt P49238)
T10 construct: purchased DiscoveRx (Eurofins) gpcrMAX PathHunter β-arrestin panel
Description: as §1

EDG3 = biological target: T11, EDG3 (Homo sapiens, UniProt Q99500)
T11 construct: purchased DiscoveRx (Eurofins) gpcrMAX PathHunter β-arrestin panel
Description: as §1

EDG5 = biological target: T12, EDG5 (Homo sapiens, UniProt O95136)
T12 construct: purchased DiscoveRx (Eurofins) gpcrMAX PathHunter β-arrestin panel
Description: as §1

EDG7 = biological target: T13, EDG7 (Homo sapiens, UniProt Q9UBY5)
T13 construct: purchased DiscoveRx (Eurofins) gpcrMAX PathHunter β-arrestin panel
Description: as §1

F2RL3 = biological target: T14, F2RL3 (Homo sapiens, UniProt Q96RI0)
T14 construct: purchased DiscoveRx (Eurofins) gpcrMAX PathHunter β-arrestin panel
Description: as §1

FPR1 = biological target: T15, FPR1 (Homo sapiens, UniProt P21462)
T15 construct: purchased DiscoveRx (Eurofins) gpcrMAX PathHunter β-arrestin panel
Description: as §1

GALR2 = biological target: T16, GALR2 (Homo sapiens, UniProt O43603)
T16 construct: purchased DiscoveRx (Eurofins) gpcrMAX PathHunter β-arrestin panel
Description: as §1

GIPR = biological target: T17, GIPR (Homo sapiens, UniProt P48546)
T17 construct: purchased DiscoveRx (Eurofins) gpcrMAX PathHunter β-arrestin panel
Description: as §1

HRH2 = biological target: T18, HRH2 (Homo sapiens, UniProt P25021)
T18 construct: purchased DiscoveRx (Eurofins) gpcrMAX PathHunter β-arrestin panel
Description: as §1

HTR1A = biological target: T19, HTR1A (Homo sapiens, UniProt P08908)
T19 construct: purchased DiscoveRx (Eurofins) gpcrMAX PathHunter β-arrestin panel
Description: as §1

HTR1B = biological target: T20, HTR1B (Homo sapiens, UniProt P28222)
T20 construct: purchased DiscoveRx (Eurofins) gpcrMAX PathHunter β-arrestin panel
Description: as §1

MC1R = biological target: T21, MC1R (Homo sapiens, UniProt Q01726)
T21 construct: purchased DiscoveRx (Eurofins) gpcrMAX PathHunter β-arrestin panel
Description: as §1

MC3R = biological target: T22, MC3R (Homo sapiens, UniProt P41968)
T22 construct: purchased DiscoveRx (Eurofins) gpcrMAX PathHunter β-arrestin panel
Description: as §1

MC5R = biological target: T23, MC5R (Homo sapiens, UniProt P33032)
T23 construct: purchased DiscoveRx (Eurofins) gpcrMAX PathHunter β-arrestin panel
Description: as §1

MCHR1 = biological target: T24, MCHR1 (Homo sapiens, UniProt Q99705)
T24 construct: purchased DiscoveRx (Eurofins) gpcrMAX PathHunter β-arrestin panel
Description: as §1

MCHR2 = biological target: T25, MCHR2 (Homo sapiens, UniProt Q969V1)
T25 construct: purchased DiscoveRx (Eurofins) gpcrMAX PathHunter β-arrestin panel
Description: as §1

MRGPRX2 = biological target: T26, MRGPRX2 (Homo sapiens, UniProt Q96LB1)
T26 construct: purchased DiscoveRx (Eurofins) gpcrMAX PathHunter β-arrestin panel
Description: as §1

NPY1R = biological target: T27, NPY1R (Homo sapiens, UniProt P25929)
T27 construct: purchased DiscoveRx (Eurofins) gpcrMAX PathHunter β-arrestin panel
Description: as §1

NTSR1 = biological target: T28, NTSR1 (Homo sapiens, UniProt P30989)
T28 construct: purchased DiscoveRx (Eurofins) gpcrMAX PathHunter β-arrestin panel
Description: as §1

OPRD1 = biological target: T29, OPRD1 (Homo sapiens, UniProt P41143)
T29 construct: purchased DiscoveRx (Eurofins) gpcrMAX PathHunter β-arrestin panel
Description: as §1

P2RY12 = biological target: T30, P2RY12 (Homo sapiens, UniProt Q9H244)
T30 construct: purchased DiscoveRx (Eurofins) gpcrMAX PathHunter β-arrestin panel
Description: as §1

P2RY2 = biological target: T31, P2RY2 (Homo sapiens, UniProt P41231)
T31 construct: purchased DiscoveRx (Eurofins) gpcrMAX PathHunter β-arrestin panel
Description: as §1

PRLHR = biological target: T32, PRLHR (Homo sapiens, UniProt P49683)
T32 construct: purchased DiscoveRx (Eurofins) gpcrMAX PathHunter β-arrestin panel
Description: as §1

PTGER2 = biological target: T33, PTGER2 (Homo sapiens, UniProt P43116)
T33 construct: purchased DiscoveRx (Eurofins) gpcrMAX PathHunter β-arrestin panel
Description: as §1

PTGER3 = biological target: T34, PTGER3 (Homo sapiens, UniProt P43115)
T34 construct: purchased DiscoveRx (Eurofins) gpcrMAX PathHunter β-arrestin panel
Description: as §1

SSTR2 = biological target: T35, SSTR2 (Homo sapiens, UniProt P30874)
T35 construct: purchased DiscoveRx (Eurofins) gpcrMAX PathHunter β-arrestin panel
Description: as §1

TACR2 = biological target: T36, TACR2 (Homo sapiens, UniProt P21452)
T36 construct: purchased DiscoveRx (Eurofins) gpcrMAX PathHunter β-arrestin panel
Description: as §1

TRHR = biological target: T37, TRHR (Homo sapiens, UniProt P34981)
T37 construct: purchased DiscoveRx (Eurofins) gpcrMAX PathHunter β-arrestin panel
Description: as §1

TSHR(L) = biological target: T38, TSHR(L) (Homo sapiens, UniProt P16473)
T38 construct: purchased DiscoveRx (Eurofins) gpcrMAX PathHunter β-arrestin panel
Description: as §1

T20 sequence (P28222 whole entry): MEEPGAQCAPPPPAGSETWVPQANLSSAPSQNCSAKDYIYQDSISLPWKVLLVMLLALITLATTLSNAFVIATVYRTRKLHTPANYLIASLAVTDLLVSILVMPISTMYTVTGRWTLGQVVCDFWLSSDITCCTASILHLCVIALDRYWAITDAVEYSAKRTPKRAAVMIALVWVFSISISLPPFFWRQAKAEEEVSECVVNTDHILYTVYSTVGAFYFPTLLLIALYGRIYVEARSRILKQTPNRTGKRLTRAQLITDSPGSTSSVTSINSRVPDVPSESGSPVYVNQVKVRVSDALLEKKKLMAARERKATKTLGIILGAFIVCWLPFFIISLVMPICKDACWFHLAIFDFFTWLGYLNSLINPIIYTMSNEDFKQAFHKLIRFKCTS
T3 sequence (P51681 whole entry): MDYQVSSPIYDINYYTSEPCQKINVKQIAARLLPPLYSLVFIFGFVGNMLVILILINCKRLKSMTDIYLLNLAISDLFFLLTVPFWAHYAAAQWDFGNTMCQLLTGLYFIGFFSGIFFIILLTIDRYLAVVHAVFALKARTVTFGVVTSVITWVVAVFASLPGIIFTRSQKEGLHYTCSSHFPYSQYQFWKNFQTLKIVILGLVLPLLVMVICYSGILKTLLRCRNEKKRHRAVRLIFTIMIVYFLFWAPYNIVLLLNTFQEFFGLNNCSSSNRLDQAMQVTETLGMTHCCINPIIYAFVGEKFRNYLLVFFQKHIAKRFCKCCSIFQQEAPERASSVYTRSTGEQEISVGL
T24 sequence (Q99705 whole entry): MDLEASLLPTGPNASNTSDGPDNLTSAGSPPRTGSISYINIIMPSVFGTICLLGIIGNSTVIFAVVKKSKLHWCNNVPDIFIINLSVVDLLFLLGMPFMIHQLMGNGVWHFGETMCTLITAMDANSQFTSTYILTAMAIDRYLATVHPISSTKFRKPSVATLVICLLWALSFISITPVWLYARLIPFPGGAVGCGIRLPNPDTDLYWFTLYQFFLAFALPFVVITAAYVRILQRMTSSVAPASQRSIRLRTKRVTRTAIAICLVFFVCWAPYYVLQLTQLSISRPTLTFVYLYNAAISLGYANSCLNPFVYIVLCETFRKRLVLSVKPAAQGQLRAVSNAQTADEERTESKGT
T38 sequence (P16473 21-764): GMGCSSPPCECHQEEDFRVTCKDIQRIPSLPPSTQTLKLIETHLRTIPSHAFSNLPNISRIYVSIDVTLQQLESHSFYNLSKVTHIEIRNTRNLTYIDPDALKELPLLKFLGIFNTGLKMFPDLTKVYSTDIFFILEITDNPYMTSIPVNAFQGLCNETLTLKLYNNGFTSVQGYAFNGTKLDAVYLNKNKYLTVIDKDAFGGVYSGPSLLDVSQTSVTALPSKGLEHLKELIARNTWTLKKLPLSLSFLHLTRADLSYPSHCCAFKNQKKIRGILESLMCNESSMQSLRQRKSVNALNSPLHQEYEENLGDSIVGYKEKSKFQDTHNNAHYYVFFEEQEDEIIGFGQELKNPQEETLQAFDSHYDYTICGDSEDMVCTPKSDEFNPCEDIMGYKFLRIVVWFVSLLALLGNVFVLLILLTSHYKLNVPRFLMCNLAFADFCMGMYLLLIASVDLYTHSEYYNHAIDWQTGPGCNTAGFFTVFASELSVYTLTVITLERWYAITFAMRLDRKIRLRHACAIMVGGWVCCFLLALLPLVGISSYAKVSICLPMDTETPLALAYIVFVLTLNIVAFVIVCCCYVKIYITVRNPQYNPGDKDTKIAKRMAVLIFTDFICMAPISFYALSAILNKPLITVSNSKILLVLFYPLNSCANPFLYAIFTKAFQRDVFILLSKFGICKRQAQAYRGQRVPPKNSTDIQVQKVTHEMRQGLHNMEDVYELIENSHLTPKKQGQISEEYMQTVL
Chain of C5L2 (Q9P296 whole entry): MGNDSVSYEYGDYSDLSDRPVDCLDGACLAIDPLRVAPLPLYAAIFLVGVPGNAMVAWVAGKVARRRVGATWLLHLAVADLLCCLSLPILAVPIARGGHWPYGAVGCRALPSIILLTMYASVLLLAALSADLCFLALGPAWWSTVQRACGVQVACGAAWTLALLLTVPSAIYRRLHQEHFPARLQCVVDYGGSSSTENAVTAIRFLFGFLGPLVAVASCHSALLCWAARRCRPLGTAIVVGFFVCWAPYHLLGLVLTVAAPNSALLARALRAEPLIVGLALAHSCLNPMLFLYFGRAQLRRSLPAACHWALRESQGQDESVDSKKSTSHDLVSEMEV
T27 sequence (P25929 whole entry): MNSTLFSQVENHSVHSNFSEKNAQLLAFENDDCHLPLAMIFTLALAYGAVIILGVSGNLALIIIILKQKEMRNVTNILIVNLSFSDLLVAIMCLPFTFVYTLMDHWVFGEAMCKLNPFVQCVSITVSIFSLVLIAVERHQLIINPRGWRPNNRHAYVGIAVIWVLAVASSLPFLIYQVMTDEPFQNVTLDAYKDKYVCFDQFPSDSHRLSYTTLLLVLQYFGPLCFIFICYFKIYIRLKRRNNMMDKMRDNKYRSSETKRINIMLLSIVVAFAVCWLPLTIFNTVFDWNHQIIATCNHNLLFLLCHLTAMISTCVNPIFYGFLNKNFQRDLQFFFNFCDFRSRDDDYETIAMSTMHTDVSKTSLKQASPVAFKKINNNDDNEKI
T7 sequence (P34998 24-415): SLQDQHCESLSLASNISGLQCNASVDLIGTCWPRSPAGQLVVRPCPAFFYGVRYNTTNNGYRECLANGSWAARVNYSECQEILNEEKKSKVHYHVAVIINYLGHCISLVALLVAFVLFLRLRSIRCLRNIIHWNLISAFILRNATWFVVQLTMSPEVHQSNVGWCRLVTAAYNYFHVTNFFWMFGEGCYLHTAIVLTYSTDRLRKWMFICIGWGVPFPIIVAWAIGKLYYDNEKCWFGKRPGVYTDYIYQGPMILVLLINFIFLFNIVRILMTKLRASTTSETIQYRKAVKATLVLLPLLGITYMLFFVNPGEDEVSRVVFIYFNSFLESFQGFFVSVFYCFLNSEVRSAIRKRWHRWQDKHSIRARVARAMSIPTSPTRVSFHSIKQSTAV
T6 sequence (P08172 whole entry): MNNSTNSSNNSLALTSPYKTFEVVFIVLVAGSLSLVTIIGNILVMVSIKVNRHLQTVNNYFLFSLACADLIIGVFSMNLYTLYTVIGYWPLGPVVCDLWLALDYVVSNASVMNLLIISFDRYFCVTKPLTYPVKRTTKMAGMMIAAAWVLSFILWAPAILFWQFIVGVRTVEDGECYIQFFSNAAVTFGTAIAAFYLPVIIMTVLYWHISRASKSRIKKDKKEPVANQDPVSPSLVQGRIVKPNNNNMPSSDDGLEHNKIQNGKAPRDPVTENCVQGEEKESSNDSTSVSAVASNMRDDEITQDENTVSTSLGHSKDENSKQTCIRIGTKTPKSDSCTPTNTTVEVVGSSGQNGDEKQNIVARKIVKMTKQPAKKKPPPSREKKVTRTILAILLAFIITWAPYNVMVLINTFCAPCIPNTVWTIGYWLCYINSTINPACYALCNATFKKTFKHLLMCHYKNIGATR
T11 sequence (Q99500 whole entry): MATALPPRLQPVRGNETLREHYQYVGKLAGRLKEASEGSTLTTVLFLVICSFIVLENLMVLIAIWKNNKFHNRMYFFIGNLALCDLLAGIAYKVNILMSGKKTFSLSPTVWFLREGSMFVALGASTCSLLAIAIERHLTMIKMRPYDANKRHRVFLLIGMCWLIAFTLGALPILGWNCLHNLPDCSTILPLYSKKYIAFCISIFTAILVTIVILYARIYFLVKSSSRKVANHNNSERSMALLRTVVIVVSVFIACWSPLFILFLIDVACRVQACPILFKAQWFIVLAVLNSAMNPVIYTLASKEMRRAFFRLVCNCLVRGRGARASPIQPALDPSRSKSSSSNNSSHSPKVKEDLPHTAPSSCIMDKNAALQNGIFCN
T4 sequence (P51684 whole entry): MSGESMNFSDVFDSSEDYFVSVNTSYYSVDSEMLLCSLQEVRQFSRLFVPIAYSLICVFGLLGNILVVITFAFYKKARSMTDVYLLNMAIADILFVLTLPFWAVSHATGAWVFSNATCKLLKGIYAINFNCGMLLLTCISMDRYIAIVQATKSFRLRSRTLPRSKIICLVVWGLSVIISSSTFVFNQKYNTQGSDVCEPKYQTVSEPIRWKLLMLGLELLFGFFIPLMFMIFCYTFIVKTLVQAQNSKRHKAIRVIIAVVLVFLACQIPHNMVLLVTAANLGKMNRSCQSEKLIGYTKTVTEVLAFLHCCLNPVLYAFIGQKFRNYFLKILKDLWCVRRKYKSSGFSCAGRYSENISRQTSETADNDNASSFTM
T18 sequence (P25021 whole entry): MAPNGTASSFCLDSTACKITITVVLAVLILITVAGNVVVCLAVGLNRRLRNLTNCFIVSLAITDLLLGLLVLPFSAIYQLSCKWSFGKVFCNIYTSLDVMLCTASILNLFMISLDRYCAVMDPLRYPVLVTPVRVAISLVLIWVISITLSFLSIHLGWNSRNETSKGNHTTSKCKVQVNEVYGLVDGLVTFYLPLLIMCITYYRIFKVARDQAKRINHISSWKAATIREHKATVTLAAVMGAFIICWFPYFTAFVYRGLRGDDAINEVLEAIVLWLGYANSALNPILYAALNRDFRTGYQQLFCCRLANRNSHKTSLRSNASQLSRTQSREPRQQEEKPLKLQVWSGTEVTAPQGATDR
Chain of AGTR1 (P30556 whole entry, the tested form may be a part): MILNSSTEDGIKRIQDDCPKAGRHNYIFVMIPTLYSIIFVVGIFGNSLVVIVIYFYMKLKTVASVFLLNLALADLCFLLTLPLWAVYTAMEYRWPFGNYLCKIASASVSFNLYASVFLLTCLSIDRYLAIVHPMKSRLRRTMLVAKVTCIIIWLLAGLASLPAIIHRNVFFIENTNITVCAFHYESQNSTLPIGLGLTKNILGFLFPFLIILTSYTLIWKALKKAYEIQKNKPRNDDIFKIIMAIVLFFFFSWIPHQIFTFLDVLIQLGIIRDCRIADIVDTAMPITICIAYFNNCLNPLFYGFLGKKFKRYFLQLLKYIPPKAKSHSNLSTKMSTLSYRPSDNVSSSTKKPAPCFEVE

`CC(=O)N[C@@H](CCCC#C/C=C/Cl)CCCCCCC(Cl)Cl` [Compound 4, taveuniamide F] gave an inhibition at 20 µM (AGTR1) of 23.3%, an inhibition at 20 µM (AGTRL1) of 6.8% and an inhibition at 20 µM (AVPR1A) of 48.5%. It also gave an inhibition at 20 µM (BDKRB2) of 8.4%, an inhibition at 20 µM (C5L2) of 24.1% and an inhibition at 20 µM (CCKBR) of 10.2%. For the same molecule, the inhibition at 20 µM (CCR4) was 58.9%, the inhibition at 20 µM (CCR5) was 14.7% and the inhibition at 20 µM (CCR6) was 58.2%. The inhibition at 20 µM (CCR8) was 43%, the inhibition at 20 µM (CHRM2) was 36.7% and the inhibition at 20 µM (CRHR1) was -2.4%. It also gave an inhibition at 20 µM (CRHR2) of 12%, an inhibition at 20 µM (CRTH2) of 16.9% and an inhibition at 20 µM (CX3CR1) of 35.6%. For the same molecule, the inhibition at 20 µM (EDG3) was 21%, the inhibition at 20 µM (EDG5) was 0.8% and the inhibition at 20 µM (EDG7) was 38.6%. It also gave an inhibition at 20 µM (F2RL3) of 59.2%, an inhibition at 20 µM (FPR1) of -4.7% and an inhibition at 20 µM (GALR2) of 23.1%. The inhibition at 20 µM (GIPR) was 23.3%, the inhibition at 20 µM (HRH2) was 24.1% and the inhibition at 20 µM (HTR1A) was 15.2%. It also gave an inhibition at 20 µM (HTR1B) of 33.9%, an inhibition at 20 µM (MC1R) of 10.2% and an inhibition at 20 µM (MC3R) of 19.7%. For the same molecule, the inhibition at 20 µM (MC5R) was 39.8%, the inhibition at 20 µM (MCHR1) was 16.3% and the inhibition at 20 µM (MCHR2) was 21.4%. The inhibition at 20 µM (MRGPRX2) was 64.7%, the inhibition at 20 µM (NPY1R) was 3.4% and the inhibition at 20 µM (NTSR1) was 18.8%. It also gave an inhibition at 20 µM (OPRD1) of 7.2%, an inhibition at 20 µM (P2RY12) of 1.4% and an inhibition at 20 µM (P2RY2) of -1.1%. It also gave an inhibition at 20 µM (PRLHR) of 46.6%, an inhibition at 20 µM (PTGER2) of 4.4% and an inhibition at 20 µM (PTGER3) of -13%. The inhibition at 20 µM (SSTR2) was -0.1%, the inhibition at 20 µM (TACR2) was 59.3% and the inhibition at 20 µM (TRHR) was 42.8%. The inhibition at 20 µM (TSHR(L)) was 7.6%.
